Laboratory results as given in patent US5463030A, “Metal chelating agents for medical application” (Research Foundation of the State of New York, priority 1994, dated 1995).
Where two headings read alike, the source gives them in different places. Blank lines part the entries; values can stand above or below the compound they belong to.

Tests used:
[1] = mouse, in vivo; for % dosage, Urine: iv
[2] = rat, in vivo, 0 min
[3] = in vivo; cited from earlier work
[4] = Osmotic pressure of Gd-DTPA bis pyridoxylamine solution; assay type: physicochemical; settings: 0.144 moles/liter solution; pH 7.08
Procedure: 0.50 g of the DTPA-bis pyridoxylamine synthesized in Example 4 was reacted with 0.15 g of Gd(OH)3 and 3.6 ml of water. The pH of the mixture was adjusted to 7.51 with sodium hydroxide. The mixture was then heated in an oil bath at a temperature of about 90° C. for about 45 minutes. The mixture was cooled and the pH adjusted to 7.08 with sodium hydroxide. 5.0 ml of the product was recovered. The concentration of the resulting Gd-DTPA bis pyridoxylamine was determined to be 0.144 moles/liter with an osmotic pressure of 646 m Os moles/liter.

[5] = MRI; cited from earlier work
[6] = cited from earlier work

% dosage, Blood ([1]; 60 min): .4441 % DOSAGE
% dosage, Bone ([1]; 60 min): .1489 % DOSAGE
% dosage, Large Intestine ([1]; 60 min): .0781 % DOSAGE
% dosage, Left Kidney ([1]; 60 min): .7115 % DOSAGE
% dosage, Liver ([1]; 60 min): 22.95 % DOSAGE
% dosage, Lungs ([1]; 60 min): .0326 % DOSAGE
% dosage, Muscle ([1]; 60 min): .6207 % DOSAGE
% dosage, Right Kidney ([1]; 60 min): .6676 % DOSAGE
% dosage, Small Intestine ([1]; 60 min): 36.08 % DOSAGE
% dosage, Spleen ([1]; 60 min): .0214 % DOSAGE
% dosage, Stomach ([1]; 60 min): .2113 % DOSAGE
% dosage, Blood ([1]; 180 min): .0188 % DOSAGE
% dosage, Bone ([1]; 180 min): .0678 % DOSAGE
% dosage, Large Intestine ([1]; 180 min): 1.471 % DOSAGE
% dosage, Left Kidney ([1]; 180 min): .4528 % DOSAGE
% dosage, Liver ([1]; 180 min): 2.805 % DOSAGE
% dosage, Lungs ([1]; 180 min): .0075 % DOSAGE
% dosage, Muscle ([1]; 180 min): .6183 % DOSAGE
% dosage, Right Kidney ([1]; 180 min): .5235 % DOSAGE
% dosage, Small Intestine ([1]; 180 min): 52.10 % DOSAGE
% dosage, Spleen ([1]; 180 min): .0096 % DOSAGE
% dosage, Stomach ([1]; 180 min): .1254 % DOSAGE
% dosage, Blood ([1]; 1440 min): .0038 % DOSAGE
% dosage, Bone ([1]; 1440 min): .1551 % DOSAGE
% dosage, Large Intestine ([1]; 1440 min): .5091 % DOSAGE
% dosage, Left Kidney ([1]; 1440 min): .1050 % DOSAGE
% dosage, Liver ([1]; 1440 min): 1.659 % DOSAGE
% dosage, Lungs ([1]; 1440 min): .0085 % DOSAGE
% dosage, Muscle ([1]; 1440 min): .0861 % DOSAGE
% dosage, Right Kidney ([1]; 1440 min): .1102 % DOSAGE
% dosage, Small Intestine ([1]; 1440 min): .1533 % DOSAGE
% dosage, Spleen ([1]; 1440 min): .0042 % DOSAGE
% dosage, Stomach ([1]; 1440 min): .0468 % DOSAGE
% dosage, Urine ([1]; 1 h): 26.30 % DOSAGE
% dosage, Urine ([1]; 3 h): 32.13 % DOSAGE
% Retained, whole body [2]: 100%
Compound: Cc1cccc(C)c1NC(=O)CN(CCN(CCN(CC(=O)[O-])CC(=O)Nc1c(C)cccc1C)CC(=O)[O-])CC(=O)[O-].[153Gd+3] [Gadolinium III chelate of DTPA-bis (2,6-dimethylaniline)]

Compound: O=C([O-])CN(CCN(CC(=O)[O-])CC(=O)[O-])CCN(CC(=O)[O-])C(COCc1ccccc1)C(=O)[O-].[Gd+3] (stereo not drawn) [Gd-BOPTA, gadolinium-benzyloxyproprionyl tetracetate]
liver concentration of injected dose [3]: 37%

osmotic pressure [4]: 646 m Os moles/liter
Compound: Cc1ncc(CO)c(CNC(=O)CN(CCN(CCN(CC(=O)[O-])CC(=O)NCc2c(CO)cnc(C)c2O)CC(=O)[O-])CC(=O)[O-])c1O.[Gd+3] [Gd-DTPA bis pyridoxylamine, Gadolinium III chelate of DTPA-bis pyridoxylamide]

Compound: O=C([O-])CN(CCN(CC(=O)[O-])CC(=O)O)CCN(CC(=O)[O-])CC(=O)O.[Gd+3] [Gd-DTPA, gadolinium-diethylene triamino pentaacetic acid]
blood clearance and excretion [3]: rapid clearance from the blood and subsequent prompt renal excretion

Compound: gadolinium-hepatic iminodiacetic acid [Gd-HIDA]
image enhancement of the gall bladder [5]: failed to enhance the image of the gall bladder
image enhancement of the liver [5]: only faintly enhanced images of the liver
in vivo stability [6]: unstable in vivo
